This data set relates to SH-SY5Y cells. The experiment in a line: Cell viability assay (MTT) in SH-SY5Y cells. It counts as cell-based, human. As to conditions: H2O2 0, 50, 100, 150, 200 or 250 μM, 24 hours. On the procedure:
To determine the concentration of C. schoenanthus ethanol extracts which can be used to investigate their anti-stress effect, SH-SY5Y cells were cultured with several concentrations (1/100, 1/1000, or 1/10000 v/v dilution of C. schoenanthus ethanol extract in culturing medium) for 72 hours.
SH-SY5Y cells were treated with different concentrations of C. schoenanthus extract (at a 1/500, 1/750, 1/1000, 1/1500, or 1/2000 v/v dilution in medium) for 72 hours and cell viability was determined by MTT assay.
To evaluate whether H2O2 influences neuronal cytotoxicity, SH-SY5Y cells were treated with various concentrations of H2O2 (0, 50, 100, 150, 200, or 250 μM) for 24 hours.
A cell survival analysis was performed using 3-(4,5-Dimethylthiazol-2-yl)-2,5-diphenyltetrazolium bromide (MTT), which was dissolved in PBS to a final concentration of 5 mg/ml. […] Then, 100 μl of 10% of sodium dodecyl sulfate (SDS) was added and after overnight incubation, the absorbance was determined at 570 nm. The control wells which contained cultured cells with medium only were considered as 100% cell viability.

The source of these data is patent US20140147527A1, “COMPOSITIONS AND METHODS FOR TREATING EMOTIONAL-PSYCHOLOGICAL STRESS” (TSUKUBA UNIVERSITY, priority 2012, published 2014).

Molecules are shown by their SMILES.

For the molecule `OO` [H2O2], the “cytotoxicity in SH-SY5Y cells” value is “dose-dependent cytotoxicity”.
